Data: ChEMBL document CHEMBL5380873, “Discovery of Potent Tetrazole Free Fatty Acid Receptor 2 Antagonists” (J Med Chem, 2023)
Values belong to the molecule of their own block, whether it stands above or below them. Calls of active or inactive are those of the source. The rule behind the calls is not given here.

How the values were obtained:
[1] = Chemical stability of compound in PBS buffer at pH 7.4 measured after 10 days by HPLC analysis; assay type: physicochemical; conditions: time 10 day, read-out: Stability
[2] = molecular target: T1, Free fatty acid receptor 3 (Homo sapiens) (UniProt O14843); experiment: Antagonist activity at human FFA3 expressed in Flp-In-T-REx-293 cells co-expressing eYFP assessed as inhibition of propionate-induced cAMP accumulation at 10 uM preincubated with compound for 20 mins followed by propionate addition and measured after 25 mins in the presence of forskolin by TR-FRET analysis; assay type: functional, cell-based; conditions: time 45.0 min
T1 sequence (whole entry): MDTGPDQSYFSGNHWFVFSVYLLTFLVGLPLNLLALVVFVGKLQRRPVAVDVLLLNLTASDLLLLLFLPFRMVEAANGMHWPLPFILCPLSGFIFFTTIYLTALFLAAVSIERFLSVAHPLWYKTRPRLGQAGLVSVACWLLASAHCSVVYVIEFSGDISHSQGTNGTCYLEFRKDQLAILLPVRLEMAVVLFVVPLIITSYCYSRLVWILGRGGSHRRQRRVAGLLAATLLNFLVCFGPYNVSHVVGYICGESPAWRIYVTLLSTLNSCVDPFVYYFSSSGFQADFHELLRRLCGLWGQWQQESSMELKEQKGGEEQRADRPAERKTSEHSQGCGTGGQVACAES

Neutrophil [3] = experiment: Inhibition of propionate-induced cell migration in human peripheral neutrophil at 0.4 to 1 uM preincubated with compound for 30 mins followed by propionate addition and measured after 1 hrs by ATPlite luminescence assay; assay type: functional, cell-based; conditions: dose 0.4-1 µM, time 90.0 min
Neutrophil [4] = experiment: (§1) Inhibition of propionate-induced respiratory burst in human peripheral neutrophil assessed as effect on luminol-induced chemiluminescence at 0.4 to 1 uM preincubated with compound for 30 mins followed by propionate addition and measured immediately by microplate reader based analysis; assay type: functional, cell-based; conditions: dose 0.4-1 µM
Neutrophil [5] = experiment: Inhibition of fMLP-induced cell migration in human peripheral neutrophil at 10 uM; assay type: functional, cell-based
Neutrophil [6] = experiment: Inhibition of fMLP-induced respiratory burst in human peripheral neutrophil at 10 uM; assay type: functional, cell-based
[7] = as §1, with “luminol-amplifies” for “luminol-induced”, “chemiluminescence by measuring fold change” for “chemiluminescence”, “analysis relative to CATPB” for “analysis”; assay type: functional; conditions: dose 0.4-1 µM, 0.5 h
[8] = molecular target: T2, Free fatty acid receptor 2 (Homo sapiens, UniProt O15552); experiment: (§2) Antagonist activity at human FFA2 expressed in Flp-In-T-REx-293 cells co-expressing eYFP assessed as inhibition of [35S]GTPgammaS incorporation preincubated for 15 mins followed by [35S]GTPgammaS addition and measured after 60 min by liquid scintillation spectroscopic analysis; assay type: functional, cell-based
T2 sequence (O15552 whole entry): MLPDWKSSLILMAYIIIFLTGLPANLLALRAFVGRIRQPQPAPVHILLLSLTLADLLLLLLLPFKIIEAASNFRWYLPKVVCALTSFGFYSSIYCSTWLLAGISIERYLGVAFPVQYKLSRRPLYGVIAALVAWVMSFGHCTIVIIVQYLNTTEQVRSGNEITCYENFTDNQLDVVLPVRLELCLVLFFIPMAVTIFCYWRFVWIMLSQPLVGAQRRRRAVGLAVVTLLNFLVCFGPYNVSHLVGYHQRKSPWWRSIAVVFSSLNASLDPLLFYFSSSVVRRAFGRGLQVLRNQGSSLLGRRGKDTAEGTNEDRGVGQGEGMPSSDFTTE

[9] = molecular target: T2, Free fatty acid receptor 2; experiment: (§3) Antagonist activity at human FFA2 expressed in Flp-In-T-REx-293 cells co-expressing eYFP assessed as inhibition of propionate-induced cAMP accumulation preincubated with compound for 20 mins followed by propionate addition and measured after 25 mins in the presence of forskolin by TR-FRET analysis; assay type: functional, cell-based
[10] = molecular target: T3, Free fatty acid receptor 2 (Homo sapiens) (UniProt O15552); experiment: as §2; assay type: functional, cell-based; conditions: time 75.0 min
T3 sequence (whole entry): T2 sequence (O15552 whole entry)

[11] = molecular target: T3, Free fatty acid receptor 2 (Homo sapiens); experiment: as §3; assay type: functional, cell-based; conditions: time 45.0 min
[12] = molecular target: T3, Free fatty acid receptor 2 (Homo sapiens); experiment: Potency index, ratio of CATPB pIC50 to test compound pIC50 for antagonist activity at human FFA2
[13] = molecular target: T2, Free fatty acid receptor 2; experiment: Inverse agonist activity at human GPR43 expressed in Glosensor cells assessed as increase in forskolin-induced cAMP level preincubated with compound for 5 mins followed by forskolin addition and measured after 15 mins by luminescence based analysis; assay type: functional, cell-based

SMILES: COc1cccc(CC(=O)N[C@@H](Cc2ccc(C(F)(F)F)cc2)Cc2nnn[nH]2)c1
remaining at 240 h [1]: > 95% | Activity [2]: inactive | inhibition (Neutrophil [3]): Active | inhibition (Neutrophil [4]): Active | inhibition (Neutrophil [5]): inactive | inhibition (Neutrophil [6]): inactive | fold change (FC) [7]: 8

SMILES: O=C(Cc1cnc[nH]1)N[C@@H](Cc1ccc(C(F)(F)F)cc1)Cc1nnn[nH]1
Activity [10]: inactive | Activity [11]: inactive

SMILES: O=C(Cc1cncc(Br)c1)N[C@@H](Cc1ccc(C(F)(F)F)cc1)Cc1nnn[nH]1
remaining at 240 h [1]: > 95%

SMILES: CC1=C(C(=O)Nc2cc(C)cc(C)c2)C(c2ccc(N(C)C)cc2)NC(=O)N1 (stereo unspecified)
IC50 [13]: ~10 µM

Next, values leading:

pIC50 [8]: > 5 | pIC50 [9]: > 5
SMILES: N#Cc1cccc(CC(=O)N[C@@H](Cc2ccc(C(F)(F)F)cc2)Cc2nnn[nH]2)c1

Ratio pIC50 [12]: > 10
SMILES: Cc1cccc(CC(=O)N[C@@H](Cc2ccc(C(F)(F)F)cc2)Cc2nnn[nH]2)c1

Activity [10]: inactive | Activity [11]: inactive
SMILES: O=C(Cc1cccc(-c2nnn[nH]2)c1)N[C@@H](Cc1ccc(C(F)(F)F)cc1)Cc1nnn[nH]1
